{"source": "patent US20110269782A1", "about": "“USE OF NMDA ACTIVITY ENHANCERS TO TREAT HYPERSOMNIA, REDUCED WAKEFULNESS OR REDUCED VIGILANCE” (priority 2008, published 2011)", "key": {"[1]": {"conditions": "30 mg/kg, cited from earlier work"}, "rats": {"system": "rats", "assay": "Rat sleep parameters by EEG/EMG telemetry (WAKE, SWS, REM)", "format": "in vivo", "method": "In the above experiment rats implanted with a two channel telemetry transmitter to record EEG and EMG simultaneously were dosed with either Merck 1 (nanosuspension 3 mg/kg; 5 ml/kg; p.o.) or vehicle (1.4% W/V hydroxypropylmethylcellulose 0.2% W/V sodium docusate; p.o.) at light on-set in a cross-over design. EEG and EMG recordings were collected for at least 12 hours. Data was converted with LoadDSI.s2s and BatchEEGpower2.s2s scripts (CED) and every 12 s epoch was automatically classified as either WAKE, SWS or REM (PS) sleep with Modulus analysis of sleep v7.xlt. Statistical analysis was done with Student's t-test for paired data. REM latency was defined as the first>1 min REM bout.\nSimilar data is shown for D-amino acid oxidase inhibitor 4H-furo[3,2-b]pyrrole-5-carboxylic acid (Merck 2) in FIG. 3 and D-serine in FIG. 4 at 100 mg/kg. In this experiment rats implanted with a two channel telemetry transmitter to record EEG and EMG simultaneously were dosed with either drug (30, 100, 300 mg/kg d-serine or 25 mg/kg Merck 2) or vehicle (water or 0.5% MC) intraperitoneally at light on-set in a cross-over design. EEG and EMG recordings were collected for at least 12 hours. Data was converted with LoadDSI.s2s and BatchEEGpower2.s2 s scripts (CED) and every 12 s epoch was automatically classified as either WAKE, SWS or REM (PS) sleep with Modulus analysis of sleep v5 REM incl entries.XLT. Preliminary statistical analysis was done with Student's t-test for paired data. Significance level p<0.05.\n(§1) Rats implanted with a two channel telemetry transmitter to record EEG and EMG simultaneously were dosed acutely with either Merck 3 (5 mg/kg; i.p.) or vehicle (distilled water; i.p.) at light onset in a cross-over design. EEB and EMG recordings were collected for at least 12 hours. Data was converted with LoadDSI.s2s and BatchEEGpower2.s2s scripts (CED) and every 12 s epoch was automatically classified as either WAKE, SWS or REM (PS) sleep and Modulus analysis of sleep v7 REM incl entries and tot.xlt. Preliminary statistical analysis was done with Student's t-test for paired data. Significance level p<0.05.\nas §1, with “3 (25” for “3 (5”, “design. EEG” for “design. EEB”, “sleep with” for “sleep and”, “sleep v6” for “sleep v7”"}, "[2]": {"conditions": "25 mg/kg i.p., first four hours"}}}
{"smiles": "O=C(N[C@@H](c1ccccc1)[C@@H]1CCCCN1)c1cccc(C(F)(F)F)c1Cl", "note": "[SSR504734]", "values": [{"measurement": "sleep parameters 24 h after drug challenge", "setting": "[1]; 24 h after drug challenge", "value": "returned to control levels"}, {"measurement": "duration of wakefulness", "setting": "[1]; effect only for the first two hours", "value": "increased"}, {"measurement": "latency time to onset of the first episode of PS", "setting": "[1]", "value": "increased latency time"}, {"measurement": "paradoxical sleep (PS)", "setting": "[1]", "value": "long-lasting reduction"}]}
{"smiles": "O=C(O)c1cc2sccc2[nH]1", "note": "[Merck 3, 4H-thieno[3,2-b]pyrrole-5-carboxylic acid]", "values": [{"measurement": "latency to REM sleep", "setting": "rats; 5 mg/kg i.p.", "value": "significantly increased"}, {"measurement": "bout duration of SWS", "setting": "rats; 5 mg/kg i.p., 7 to 12 h time period", "value": "significantly reduced"}, {"measurement": "time spent awake", "setting": "rats; 5 mg/kg i.p., first four hours after dosing", "value": "significantly increased"}, {"measurement": "latency to REM", "setting": "rats; 25 mg/kg i.p.", "value": "unaltered"}, {"measurement": "latency to SWS", "setting": "rats; 25 mg/kg i.p.", "value": "unaltered"}, {"measurement": "wakefulness compared to the control", "setting": "rats; 25 mg/kg i.p., first 4 h", "value": "significantly more awake"}, {"measurement": "time spent in REM", "setting": "rats; [2]", "value": "decrease"}, {"measurement": "time spent in SWS", "setting": "rats; [2]", "value": "decrease"}]}
{"smiles": "O=C(NCC1(CC2CC2)CCC(S(=O)(=O)CC2CC2)CC1)c1ccc(Cl)cc1Cl", "note": "(centres unmarked) [Merck 1, 2,4-dichloro-N-(4-cyclopropylmethane-sulfonyl-1-cyclopropylmethylcyclohexylmethyl)benzamide]", "values": [{"measurement": "REM latency", "setting": "rats; 3 mg/kg p.o.", "value": "significant increase"}, {"measurement": "decrease in REM sleep (mean±SEM)", "setting": "rats; 3 mg/kg p.o., significant", "value": "54±7", "unit": "%"}, {"measurement": "decrease in the number of entries into REM", "setting": "rats; 3 mg/kg p.o., significant", "value": "45±9", "unit": "%"}, {"measurement": "decrease in the number of entries into SWS", "setting": "rats; 3 mg/kg p.o., significant", "value": "26±8", "unit": "%"}, {"measurement": "increase in time spent in WAKE", "setting": "rats; 3 mg/kg p.o., trend, p=0.06", "value": "93±43", "unit": "%"}]}
